# “And” between values parts separate entries of the source, which are not always exact repeats. Identical values can stand only once.
# Assays:
# [1] = test system: influenza A virus strain A/Vietnam/1194/04 (H5N1); design: species or system BALB/c mice; details: mouse, in vivo
# influenza A/H2N2 virus = details: mouse, in vivo; cited from earlier work
# [2] = test system: IL-1, IL-6, IFN-γ, TNF-α, MIP-1, PGE2, leukotriene; experiment: ELISA of pro-inflammatory cytokines, chemokines, PGE2 and leukotriene in tracheal-pulmonary lavage; type: in vivo, BALB/c mice
# [3] = test system: influenza A virus strain A/Vietnam/1194/04 (H5N1); design: species or system BALB/c mice; details: mouse, in vivo; remark: listed apart in the source
SMILES,mean survival time [1],survival [1],survival of mice infected by influenza A/H2N2 virus (influenza A/H2N2 virus),"levels of inflammatory markers IL-6, IFN-γ, TNF-α, MIP-1 and leukotriene in tracheal-pulmonary lavage ([2]; compared with triple therapy (P<0.01 or 0.05) or uninfected normal mice)","IL-1 levels in tracheal-pulmonary lavage ([2]; zanamivir alone and controls vs triple therapy, P>0.05)",survival rate [1],TCID50 titer in the tracheal-pulmonary lavage [3]
Cc1ccc(-c2cc(C(F)(F)F)nn2-c2ccc(S(N)(=O)=O)cc2)cc1 [celecoxib],about 8.5 days,,,,,,
Cc1ccc(C)c(OCCCC(C)(C)C(=O)O)c1 [gemfibrozil],about 7.5 days,no significant improvement,52%,,,,
"Nc1ccc(O)c(C(=O)O)c1 [mesalazine, 5-aminosalicylic acid]",about 8.5 days,,,,,,
CC(=O)N[C@H]1[C@H]([C@H](O)[C@H](O)CO)OC(C(=O)O)=C[C@@H]1N=C(N)N [zanamivir],10.7 ± 1.6 days and 8.4 days,All mice survived,,significantly higher,only slightly lower,13.3%,below our detectable limit

# From patent publication US20090298797A1, “COMBINATION THERAPY FOR THE TREATMENT OF INFLUENZA” (priority 2008, published 2009)
